Assay results from patent EP1136472A1, “ARYL- AND HETEROARYLAMIDES OF CARBOALKOXYSULFANILIC ACIDS” (priority 1998, dated 2000).
≈ marks a conversion by molar mass, not a printed value. Where two headings read alike, the source gives them in different places.

Columns and labels:
[1] = system: Herpes Simplex virus of the type I (HSV-I /Leningrad/248/88); test: Antiviral effect on Herpes Simplex virus (cytopathogenic action on Vero cells); format: cell-based; conditions: for Quantity of the unchanged cells: number of cells in 100 visual fields
[2] = system: Mycobacterium tuberculosis H37RV; test: Antimicrobial action, serial dilution method; format: cell-based; conditions: 72-hour cultivation at 37°C
[3] = system: primary culture of human lymphocytes; test: Interferon-inducing activity in primary culture of human lymphocytes (IFN-α immunoenzyme test); format: cell-based
Method: Interferon synthesis induction caused by the claimed compounds was conducted on a primary culture of human lymphocytes (it is these cells in a human organism that are the main producers of interferons). To obtain lymphocyte culture, fresh blood (within 12 hours after sampling) from healthy donors (not of group II) was used. To separate lymphocytes, heparinized blood obtained from healthy donor was centrifuged in a density gradient ficoll-verografin of […] in order to extract a fraction of immunocompetent cells. This fraction was selected and diluted with the nutrient medium RPMI-1640, containing 5% of fetal calf serum, 0.3 mg/ml of L-glutamin, 100 un/ml of penicillin, and 50 µg/ml of streptomycin. The concentration of lymphocytes was considered after dying them with methylene blue and calculation of cell number in a chamber of a hemocytometer. Initial solutions of the claimed compounds were diluted with the nutrient medium RPMI-1640 so that the final concentrations of the compounds, which were obtained after introduction of lymphocyte suspension, constituted the raw: 100 µg/ml, 10 µg/ml, 1 µg/ml. The final concentration of lymphocytes in the induction mixture was 3x10^6 cell/ml.
Control and test samples were incubated for 24 hours at the temperature of 37°C. After incubation, the samples were centrifuged at 2,000 G to deposit cell elements, and IFN-containing supernatant was separate out of the samples; then the supernatant was analyzed for the quantitative content of IFN. Cell deposition was resuspended in the preceding volume of nutrient medium, colored with vital dye trypan blue, and cell number was counted in a chamber of a hemocytometer (as described above) to determine cytotoxic action of the compounds.
Quantitative determination of the content of IFN in control and test samples was conducted using the immunoenzyme test system Pro Con IF2 Plus, that is intended for determination of IFN-α, which is produced by TOO "Protein contour". The solid-phase immunoenzyme method, utilizing horse radish peroxidase as an indicator enzyme, was used to determine the quantity of interferon in the samples. Activity of the bonded peroxidase was measured using an automatic photometer for microplates with a microprocessor at the wavelength of 450 nm.
Based on the obtained results, a calibrating curve was formed, which allows to obtain data expressed in international units (IU) of activity, using the microprocessor of the automatic photometer. The results of the analysis are expressed in IU of activity of IFN per ml in the given induction system, which contains 3x10^6 lymphocyte/ml. Each test and control point was investigated in four parallels.
Controls of immunoenzyme reaction: • 1. Control of DMSO with a nutrient medium. • 2. Control of system components (according to an instruction).
The obtained data were undergone a statistical analysis using t-criterion, and calculation of the confident interval of probability at p=0.05 was carried out. Coincidence between the results obtained in the parallel tests was analyzed.

C.trachomatis D323 = test: Antichlamydial activity in infected cell culture (McCoy and L929); format: cell-based, Chlamydia trachomatis; conditions: 100 mg/l; for percentage of cell protection from infection / Number of unchanged cells: 48 hours; for Number of unchanged cells: counted in 100 visual fields
Method: The antichlamydial activity of the claimed compounds was studied in respect to C.trachomatis […], which is a standard strain contained in the collection of the department of microbiology of St. Petersburg State Pavlov Medical University. […] Cell cultures McCoy and L929 obtained from the Institute of Cytology of RAS were used in this work. Cells were grown in flasks made of neutral glass in the medium RPMI-1640 containing 10% of fetal calf serum. The test was performed in flat-bottom flasks made of glass (non-toxic), that were supplied with cover glasses. The cells were introduced into the medium in the final concentration of 1x10^6 cell/ml. […] Simultaneously, tested compounds in a final concentration of 100 mg/l were added to the cells. The sample was centrifuged at 2400 G for 60 minutes at a room temperature and incubated at 37°C for 2 hours. […] The samples were doubled using the medium without cycloheximide so as to exclude its effect on the investigated compounds. The samples were incubated for 48 hours in CO2-incubator. The controls included: • 1. Control of cell culture • 2. Control of action of solvents • 3. Control of action of chlamydia in absence of any compounds • 4. […] Control of the tested compounds as to toxicity in respect to the cell culture. Evaluation of the results was carried out by the way of determination of chlamydial cytoplasmatic inclusions (CPI) that was conducted by the method of immunofluorescence (MicroTrack Chlamydia trachomatis Direct Specimen Test), and by the way of determination of chlamydia antigens that was conducted by means of CylaMonoScreen (Russian-British Joint Venture 66 Regent's Parc Road London NW1 7SX). The effect of the action of compound was determined by analysis of the monolayer state and number of cells with CPI when compared with the control (cell culture infected with C.trachomatis […]); in doing so, the number of unchanged cells, that were counted in 100 visual fields obtained using the eyepiece-micrometer, was taken into consideration.

[4] = Mycobacterium tuberculosis, H37RV, read-out: MIC
[5] = compound concentration of 100 µg/ml, after 36 hours
[6] = compound concentration of 100 µg/ml, protection of cells from virus as compared to the control of cell culture

Compound	Content of IFN in induction mixture after 24-hour incubation ([3]; 1 mg/l)	Content of IFN in induction mixture after 24-hour incubation ([3]; 10 mg/l)	Content of IFN in induction mixture after 24-hour incubation ([3]; 100 mg/l)	Quantity of the unchanged cells [1, 5]	percentage of protection [1, 6] [%]	further results
Nc1nc2c(ncn2COCCO)c(=O)[nH]1 [Acyclovir, reference compound]	–	–	–	–	–	percentage of protection ([1]; Acyclovir 10 µg/ml, as compared to the control of cell culture): 80%; Quantity of the unchanged cells ([1]; Acyclovir 10 µg/ml): 8000
CC[C@@H](CO)NCCN[C@@H](CC)CO [Ethambutol]	–	–	–	–	–	MIC [2, 4]: 5 µg/mL (≈ 24.5 µM)
CCCCOC(=O)Nc1ccc(S(=O)(=O)Nc2ccc(Br)cc2)cc1 [III, Carbobutoxysulfanylic acid (4-bromophenyl)amide]	1,4 ± 0,2 IU/3x10^4 lymph./ml	2,6 ± 0,3 IU/3x10^4 lymph./ml	3,5 ± 0,2 IU/3x10^4 lymph./ml	5000	50	–
CCCCOC(=O)Nc1ccc(S(=O)(=O)Nc2ccccc2Cl)cc1 [IX, Carbobutoxysulfanylic acid (2-chlorophenyl)amide]	1,5 ± 0,1 IU/3x10^4 lymph./ml	2 ± 0,1 IU/3x10^4 lymph./ml	2,5 ± 0,5 IU/3x10^4 lymph./ml	7000	70	–
NNC(=O)c1ccncc1 [Isoniazid]	–	–	–	–	–	MIC [2, 4]: 0.1 µg/mL (≈ 0.729 µM)
CC1COc2c(N3CCN(C)CC3)c(F)cc3c(=O)c(C(=O)O)cn1c23 (stereo not drawn) [Ofloxacin]	–	–	–	–	–	MIC [2, 4]: 0.5 µg/mL (≈ 1.38 µM)
[H]/N=C(/N)N[C@H]1[C@H](O)[C@@H](O)[C@H](O[C@@H]2O[C@@H](C)[C@](O)(C=O)[C@H]2O[C@@H]2O[C@@H](CO)[C@H](O)[C@@H](O)[C@@H]2NC)[C@@H](N/C(N)=N\[H])[C@@H]1O [Streptomycin]	–	–	–	–	–	MIC [2, 4]: 0.2 µg/mL (≈ 0.344 µM)
CCCCCCOC(=O)Nc1ccc(S(=O)(=O)Nc2ccc(Br)cc2)cc1 [V, Carbohexoxysulfanylic acid (4-bromophenyl)amide]	1,1 ± 0,1 IU/3x10^4 lymph./ml	1,4 ± 0,1 IU/3x10^4 lymph./ml	2 ± 0,3 IU/3x10^4 lymph./ml	5000	50	–
CCCCOC(=O)Nc1ccc(S(=O)(=O)Nc2ccccc2C)cc1 [VIII, Carbobutoxysulfanylic acid (2-toluyl)amide]	–	–	–	8000	80	–
CCCCOC(=O)Nc1ccc(S(=O)(=O)Nc2c(Cl)cccc2Cl)cc1 [X, Carbobutoxysulfanylic acid (2,6-dichlorophenyl)amide]	7 ± 1 IU/3x10^4 lymph./ml	26 ± 1 IU/3x10^4 lymph./ml	100 ± 3 IU/3x10^4 lymph./ml	7000	70	percentage of cell protection from infection (C.trachomatis D323): 50%; Number of unchanged cells (C.trachomatis D323): 4.000
CCCCOC(=O)Nc1ccc(S(=O)(=O)Nc2cccc(Br)c2)cc1 [XII, Carbobutoxysulfanylic acid (3-bromophenyl)amide]	1,3 ± 0,2 IU/3x10^4 lymph./ml	2 ± 0,5 IU/3x10^4 lymph./ml	2,5 ± 0,6 IU/3x10^4 lymph./ml	5000	50	percentage of cell protection from infection (C.trachomatis D323): 45%; Number of unchanged cells (C.trachomatis D323): 3.600
CCCCOC(=O)Nc1ccc(S(=O)(=O)Nc2ccccc2)cc1 [XIII, Carbobutoxysulfanylic acid phenylamide]	1,5 ± 0,2 IU/3x10^4 lymph./ml	1,4 ± 0,1 IU/3x10^4 lymph./ml	2 ± 0,1 IU/3x10^4 lymph./ml	5000	50	–
CCCCOC(=O)Nc1ccc(S(=O)(=O)Nc2cc(C)ccc2C)cc1 [XIV, Carbobutoxysulfanylic acid (2,5-dimethyl)amide]	1,2 ± 0,1 IU/3x10^4 lymph./ml	1,8 ± 0,2 IU/3x10^4 lymph./ml	2 ± 0,2 IU/3x10^4 lymph./ml	7000	70	–
CCCCCOC(=O)Nc1ccc(S(=O)(=O)Nc2c(Cl)cccc2Cl)cc1 [XIX, Carbopentoxysulfanylic acid (2,6-dichlorophenyl)amide]	–	–	–	8000	80	–
CCCCCOC(=O)Nc1ccc(S(=O)(=O)Nc2c(C)n(C)n(-c3ccccc3)c2=O)cc1 [XLI, Carbopentoxysulfanylic acid (1,5-dimethyl-2-phenylpyrazolone-4-yl)-amide]	5 ± 0.4 IU/3x10^4 lymph./ml	18.7 ± 0.2 IU/3x10^4 lymph./ml	69 ± 1 IU/3x10^4 lymph./ml	7500	75	activity against chlamydia (in words) (C.trachomatis D323): marked biological activity against chlamydia; percentage of cell protection from infection (C.trachomatis D323): 55%; Number of unchanged cells (C.trachomatis D323): 4.400
CCOC(=O)Nc1ccc(S(=O)(=O)Nn2cnnc2)cc1 [XXVI, Carboethoxysulfanylic acid (1,2,4-triazole-4-yl)amide]	1,6 ± 0,1 IU/3x10^4 lymph./ml	2 ± 0,2 IU/3x10^4 lymph./ml	2,5 ± 0,5 IU/3x10^4 lymph./ml	–	–	–
CCCCCCCOC(=O)Nc1ccc(S(=O)(=O)Nc2ccccc2Cl)cc1 [XXVII, Carboheptoxysulfanylic acid (2-chlorophenyl)amide]	1,2 ± 0,1 IU/3x10^4 lymph./ml	1,5 ± 0,3 IU/3x10^4 lymph./ml	2 ± 0,3 IU/3x10^4 lymph./ml	–	–	–
CCCCCCOC(=O)Nc1ccc(S(=O)(=O)Nc2ccccc2Cl)cc1 [XXVIII, Carbohexoxysulfanylic acid (2-chlorophenyl)amide]	1,4 ± 0,1 IU/3x10^4 lymph./ml	2,3 ± 0,2 IU/3x10^4 lymph./ml	3 ± 0,1 IU/3x10^4 lymph./ml	–	–	–
Carbo(2,2,2-trifluorethoxy)-sulfanylic acid (1,2,4-thiadiazole-2-butyl-5-yl)amide [XL]	1.6 ± 0.1 IU/3x10^4 lymph./ml	3.6 ± 0.5 IU/3x10^4 lymph./ml	14 ± 0.2 IU/3x10^4 lymph./ml	7000	70	–
Carboheptoxysulfanylic acid (1,2,4-thiadiazole-2-hexyl-5-yl)amide [XXXIV]	–	–	–	–	–	MIC [2]: 50 µg/mL
